# Laboratory results as given in patent US9593149B2, “Amylin and calcitonin receptor agonist” (Novo Nordisk A/S, priority 2014, dated 2017).
# Peptide text beside a SMILES is read from it. * marks the point of attachment. C18 diacid = O=C(O)CCCCCCCCCCCCCCCCC(=O)*
# Legend:
# [1] = Assay (XV) subcutaneous PK in LYD-pigs, co-formulated or co-dosed with liraglutide; format: in vivo; details: for AUC/D / Cmax/D / T½: LYD-pigs s.c.
# Protocol: The studies were performed in female LYD pigs of SPF origin delivered from Lars Jonson, Hillerødvej 70, Lynge.
# Before the animals arrived, the animal rooms and pens were cleaned and disinfected with Virkon S. During the study, the animal rooms were cleaned and washed regularly.
# The pigs were group housed during the acclimatisation period. The pigs were fitted with a central venous catheter while under anaesthesia and after the single housed after catheterization in pens ≧3.1 m^2 with straw as bedding. The temperature in the rooms was set at 20−23° C. and the relative humidity to 30-70%. The rooms were illuminated to give a cycle of 12 hours light and 12 hours darkness. Light was on from 07.00 to 19.00 h.
# The formulations was prepared similarly and filled in cartridges in all cases.
# The animals were dosed subcutaneously as follows.
# The s.c. dosing was performed in 4 mm depth, in a site of injection which was secured on beforehand by ultrasound to avoid muscular tissue or heavy vascularization. Dosing was made using NovoPen®4 and needle Novofine 28 G and a needle stopper to ensure 4 mm depth of injection. The needle was kept in the subcutis for 10 seconds after the injection to secure deposition of compound. […] The co-formulation was administered as one injection. Study was performed as a cross over study with adequate wash out between dosings.
# Blood was sampled at predefined time points for up till 15 days post dosing to adequately cover the full plasma concentration-time profile of the mimylin derivative. Blood samples were drawn from a central venous catheter to jugularis made through the catheter which was afterwards flushed with 10 ml 0.9% NaCl.
# For each blood sampling time point approximately 0.8 mL of whole blood was collected in a 1.5 mL EDTA coated tube, and the tube was gently turned to allowing mixing of the sample with the anticoagulant. Blood samples (for example 0.8 mL) were collected in EDTA buffer (8 mM) and then centrifuged at 4° C. and 2000 G for 10 minutes. Plasma was pipetted into Micronic tubes on dry ice, and kept at −20° C. until analysis.
# Individual plasma concentration-time profiles were analysed by a non-compartmental model in Phoenix WinNonlin version 6.3 (Pharsight Inc., Mountain View, Calif., USA).
# The area under the plasma concentration versus time curve (AUC, [time×concentration]) was calculated (by the Pharsight programme) after subcutaneous administration, typically until 240-288 hours post dosing, or until last measured concentration. The AUC was calculated and given as AUCinf-pred and dose normalized.
# Results of co-formulation studies in LYD-pigs are summarized below
# [2] = Assay (XVI) T½ and subcutaneous bioavailability in LYD-pigs; format: in vivo
# Protocol: Assay (XVI)—Determination of T½ and Subcutaneous Bioavailability in LYD-Pigs
# Pharmacokinetic (PK) studies in Landrace Yorkshire Duroc crossbreed (LYD) pigs were conducted in order to determine a) the protraction of the mimylin derivative after i.v. administration, and b) the bioavailability of the mimylin derivative after s.c. administration The LYD pig were delivered, treated and acclimatised as described in ASSAY XV above.
# In the i.v. and s.c. studies, the mimylin derivative was dissolved in 50 mM phosphate, 70 mM sodium chloride and 0.05% polysorbate 80, pH=8.0 to a concentration of approximately 100 nmol/mL. Animals were dosed with 2 nmol/kg s.c. and 5 nmol/kg i.v.
# The animals were dosed subcutaneously or intravenously as follows. […]
# The plasma concentration of the respective mimylin derivative was analysed using LC-MS. Individual plasma concentration-time profiles were analysed by a non-compartmental model in Phoenix WinNonlin version 6.3 (Pharsight Inc., Mountain View, Calif., USA).
# The resulting terminal half-life was determined based on intravenous administration. T½ is the terminal half-life=In2/λz and was determined from λz, the first order rate constant associated with the terminal (log-linear) portion of the curve, estimated by linear regression of time vs. log concentration.
# The absolute bioavailability (F) was calculated as follows: […]
# [3] = Co-formulation liraglutide + Ex #2
structure (smiles),measurement,setting,value
"CC(C)C[C@H](NC(=O)[C@H](C)NC(=O)[C@H](C)NC(=O)[C@@H](NC(=O)[C@H](CO)NC(=O)[C@H](CC(C)C)NC(=O)[C@H](CCC(=O)O)NC(=O)[C@H](CO)NC(=O)[C@H](C)NC(=O)[C@H](CCC(=O)O)NC(=O)CCCCCCCCCCCCCCCCC(=O)O)[C@@H](C)O)C(=O)NCC(=O)N[C@@H](CCCNC(=N)N)C(=O)N[C@@H](CC(C)C)C(=O)N[C@@H](CO)C(=O)N[C@@H](C)C(=O)N[C@@H](CCC(=O)O)C(=O)N[C@@H](CC(C)C)C(=O)N[C@@H](Cc1cnc[nH]1)C(=O)N[C@@H](CCC(=O)O)C(=O)N[C@@H](CC(C)C)C(=O)N[C@@H](C)C(=O)N[C@H](C(=O)N[C@@H](CC(C)C)C(=O)N1CCC[C@H]1C(=O)N[C@@H](CCCNC(=N)N)C(=O)N[C@H](C(=O)N[C@@H](CCC(=O)O)C(=O)N[C@H](C(=O)NCC(=O)N1CCC[C@H]1C(=O)N[C@@H](CCC(=O)O)C(=O)N[C@@H](CO)C(=O)N1CCC[C@H]1C(N)=O)[C@@H](C)O)[C@@H](C)O)[C@@H](C)O [Ex. #2, [N-terminal(C18 diacid)]mimylin] ({C18 diacid}-EASELSTAALGRLSAELHELATLPRTETGPESP-NH2)",AUC/D,[1]; Co-dosing liraglutide + Ex #2,712 kg·h/L
same,Cmax/D,[1]; Co-dosing liraglutide + Ex #2,6.9 kg/L
same,T½,[1]; Co-dosing liraglutide + Ex #2,67 h
same,AUC/D,[1]; [3],732 kg·h/L
same,Cmax/D,[1]; [3],5.8 kg/L
same,T½,[1]; [3],67 h
same,effect on PK profile of the co-formulated peptide,[1]; administered as co-formulations to LYD pigs,do not affect the PK profile of liraglutide
same,Subcutaneous bioavailability (%),[2]; LYD-pigs,99%
same,"LYD-pigs iv PK, t½","[2]; i.v., harmonic mean, n = 3",64 h
